Measured values: ChEMBL document CHEMBL5096167, “Recent advances in development of hetero-bivalent kinase inhibitors” (Eur J Med Chem, 2021)
Values belong to the compound of their own block, whether it stands above or below them.

Legend:
[1] = biological target: T1, Serine/threonine-protein kinase haspin (Homo sapiens, UniProt Q8TF76)
T1 sequence (Q8TF76 whole entry): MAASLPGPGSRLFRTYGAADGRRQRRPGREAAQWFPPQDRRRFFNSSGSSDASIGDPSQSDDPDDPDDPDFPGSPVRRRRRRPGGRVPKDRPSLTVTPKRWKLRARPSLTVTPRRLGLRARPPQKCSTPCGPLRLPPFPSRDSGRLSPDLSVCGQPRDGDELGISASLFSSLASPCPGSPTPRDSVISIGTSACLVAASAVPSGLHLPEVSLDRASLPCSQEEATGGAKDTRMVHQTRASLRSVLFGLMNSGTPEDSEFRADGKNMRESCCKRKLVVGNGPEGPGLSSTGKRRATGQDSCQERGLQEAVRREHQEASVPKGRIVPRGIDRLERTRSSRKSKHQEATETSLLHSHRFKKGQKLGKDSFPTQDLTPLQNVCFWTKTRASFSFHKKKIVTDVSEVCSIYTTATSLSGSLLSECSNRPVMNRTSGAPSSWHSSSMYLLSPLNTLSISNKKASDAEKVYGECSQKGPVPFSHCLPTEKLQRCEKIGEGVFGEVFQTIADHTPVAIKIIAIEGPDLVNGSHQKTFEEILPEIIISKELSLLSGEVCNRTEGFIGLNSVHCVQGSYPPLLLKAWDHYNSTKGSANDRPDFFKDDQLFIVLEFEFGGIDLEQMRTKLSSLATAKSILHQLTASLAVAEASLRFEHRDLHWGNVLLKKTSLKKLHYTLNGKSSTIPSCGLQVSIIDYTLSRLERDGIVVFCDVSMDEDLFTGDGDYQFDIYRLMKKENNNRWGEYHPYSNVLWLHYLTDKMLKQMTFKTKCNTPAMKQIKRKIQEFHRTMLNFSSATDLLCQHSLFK

[2] = biological target: cAMP-dependent protein kinase catalytic subunit alpha (Homo sapiens, UniProt P17612); experiment: Displacement of mAb(D38C6)-BTN from human recombinant PKAc alpha incubated for 15 mins by microplate reader assay
[3] = Inhibition of CK2alpha2beta2 (unknown origin); set-up: species or system Homo sapiens
[4] = biological target: Proto-oncogene tyrosine-protein kinase Src (Homo sapiens, UniProt P12931); experiment: Inhibition of c-Src (unknown origin)
Proto-oncogene tyrosine-protein kinase Src, sequence (P12931 2-536 limits assumed): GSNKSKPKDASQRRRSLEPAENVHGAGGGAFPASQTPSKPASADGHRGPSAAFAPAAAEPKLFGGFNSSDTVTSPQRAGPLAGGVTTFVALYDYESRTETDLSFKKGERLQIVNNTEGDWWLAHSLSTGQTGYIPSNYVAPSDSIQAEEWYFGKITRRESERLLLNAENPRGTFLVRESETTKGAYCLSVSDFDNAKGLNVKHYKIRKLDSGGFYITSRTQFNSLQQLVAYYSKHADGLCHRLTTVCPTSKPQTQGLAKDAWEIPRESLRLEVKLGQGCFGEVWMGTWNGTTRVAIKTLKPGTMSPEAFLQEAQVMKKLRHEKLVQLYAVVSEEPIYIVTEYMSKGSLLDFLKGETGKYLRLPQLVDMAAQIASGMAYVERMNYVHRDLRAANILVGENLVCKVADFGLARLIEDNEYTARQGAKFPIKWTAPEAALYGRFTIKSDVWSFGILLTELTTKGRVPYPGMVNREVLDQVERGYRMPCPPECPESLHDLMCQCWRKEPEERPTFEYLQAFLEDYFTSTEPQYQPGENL

[5] = biological target: cAMP-dependent protein kinase (PKA) (Homo sapiens, UniProt P22694+P17612+P22612)
[6] = Binding affinity to human PKAc beta-S54L mutant assessed as dissociation constant
[7] = biological target: cAMP-dependent protein kinase catalytic subunit beta (Homo sapiens, UniProt P22694); experiment: Binding affinity to human wild-type PKAc beta assessed as dissociation constant
[8] = Binding affinity to full length human recombinant PKAc assessed as dissociation constant
[9] = biological target: T1, Serine/threonine-protein kinase haspin; remark: listed apart in the source
Ephrin type-A receptor 3 = biological target: T2, Ephrin type-A receptor 3 (Homo sapiens, UniProt P29320); experiment: Inhibition of EPHA3 (unknown origin) assessed as dissociation constant by ELISA-like binding assay
T2 sequence (P29320 whole entry): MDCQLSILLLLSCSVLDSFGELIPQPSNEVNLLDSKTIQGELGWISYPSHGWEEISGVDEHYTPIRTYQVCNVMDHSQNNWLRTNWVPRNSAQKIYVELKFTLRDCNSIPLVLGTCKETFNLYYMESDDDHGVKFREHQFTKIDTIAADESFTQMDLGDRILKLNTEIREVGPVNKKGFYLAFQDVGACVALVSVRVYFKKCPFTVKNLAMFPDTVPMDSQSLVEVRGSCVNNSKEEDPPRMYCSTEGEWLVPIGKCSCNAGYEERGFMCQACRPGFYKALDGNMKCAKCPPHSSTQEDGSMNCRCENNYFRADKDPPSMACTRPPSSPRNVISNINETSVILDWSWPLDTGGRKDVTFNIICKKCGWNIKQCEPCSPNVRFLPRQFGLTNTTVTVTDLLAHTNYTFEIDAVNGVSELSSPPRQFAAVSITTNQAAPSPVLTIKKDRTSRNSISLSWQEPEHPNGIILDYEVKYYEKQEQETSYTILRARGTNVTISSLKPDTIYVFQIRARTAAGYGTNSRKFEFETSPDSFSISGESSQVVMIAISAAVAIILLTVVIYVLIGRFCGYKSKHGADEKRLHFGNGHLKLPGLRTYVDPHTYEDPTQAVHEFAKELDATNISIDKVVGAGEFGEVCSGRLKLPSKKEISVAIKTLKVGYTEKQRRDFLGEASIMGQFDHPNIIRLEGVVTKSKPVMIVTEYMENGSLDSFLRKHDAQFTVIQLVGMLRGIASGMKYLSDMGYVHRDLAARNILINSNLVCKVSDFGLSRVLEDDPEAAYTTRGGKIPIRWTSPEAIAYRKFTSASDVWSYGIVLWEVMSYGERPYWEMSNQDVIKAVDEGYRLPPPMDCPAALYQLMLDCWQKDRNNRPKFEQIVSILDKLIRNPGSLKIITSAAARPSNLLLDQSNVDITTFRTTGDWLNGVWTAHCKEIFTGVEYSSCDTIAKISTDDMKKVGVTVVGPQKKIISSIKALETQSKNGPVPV

[10] = biological target: T1, Serine/threonine-protein kinase haspin; remark: listed apart in the source

Kd [2]: 0.042 nM
Structure (SMILES): C[C@@H](NC(=O)CCCCCNC(=O)c1ccc(-c2ccnc(N)n2)[se]1)C(=O)N[C@H](CCCNC(=N)N)C(=O)N[C@H](CCCNC(=N)N)C(=O)N[C@H](CCCNC(=N)N)C(=O)N[C@H](CCCNC(=N)N)C(=O)N[C@H](CCCNC(=N)N)C(=O)N[C@H](CCCNC(=N)N)C(=O)N[C@H](CCCCN(C)c1ccc2c(-c3ccc(C(=O)[O-])cc3C(=O)O)c3ccc(=[N+](C)C)cc-3oc2c1)C(N)=O

IC50 [5]: 2.6 nM
Structure (SMILES): CO[C@@H]1[C@H](N(C)C(=O)CCC(=O)NCCCOCCOCCOCCCNC(=O)COCC(=O)N[C@H]2CSSC[C@@H](C(=O)NCC(N)=O)NC(=O)NC(=O)[C@H](Cc3ccccc3)NC(=O)[C@H](C(C)C)NC(=O)[C@H](CCCNC(=N)N)NC(=O)[C@H](Cc3ccccc3)NC(=O)[C@H]([C@@H](C)O)NC2=O)C[C@H]2O[C@]1(C)n1c3ccccc3c3c4c(c5c6ccccc6n2c5c31)C(=O)NC4

Kd [6]: 0.019 nM
Kd [7]: 0.013 nM
Structure (SMILES): N=C(N)NCCCC(NC(=O)CCCCCNC(=O)C(Cc1c[nH]c2ccccc12)NC(=O)CCCCCNC(=O)c1ccc(-c2ccnc(N)n2)[se]1)C(=O)NC(CCCNC(=N)N)C(=O)NC(CCCNC(=N)N)C(=O)NC(CCCNC(=N)N)C(=O)NC(CCCNC(=N)N)C(=O)NC(CCCNC(=N)N)C(=O)NC(CCCCN)C(N)=O (stereo unspecified)

IC50 [5]: 57000 nM
Structure (SMILES): CC(C)[C@@H]1NC(=O)[C@H](CCCNC(=N)N)NC(=O)[C@H](Cc2ccccc2)NC(=O)[C@H]([C@@H](C)O)NC(=O)[C@@H](N)CSSC[C@@H](C(=O)NCC(N)=O)NC(=O)NC(=O)[C@H](Cc2ccccc2)NC1=O

Kd [10]: 0.42 nM
Kd [8]: 38 nM
Selectivity Index (Homo sapiens): 90
Structure (SMILES): C[C@H](N)C(=O)N[C@@H](CCCNC(=N)N)C(=O)N[C@@H](CCCCNC(=O)C[C@@H](NC(=O)CCCCCNC(=O)[C@H]1O[C@@H](n2cnc3c(N)ncnc32)[C@H](O)[C@@H]1O)C(N)=O)C(=O)N[C@@H](CCCCN)C(=O)N[C@@H](CCC(N)=O)C(=O)N[C@H](C(=O)N[C@@H](C)C(=O)N[C@@H](CCCNC(=N)N)C(=O)N[C@@H](CCCNC(=N)N)C(=O)N[C@@H](CCCNC(=N)N)C(=O)N[C@@H](CCCNC(=N)N)C(=O)N[C@@H](CCCNC(=N)N)C(=O)N[C@@H](CCCNC(=N)N)C(N)=O)[C@H](C)O

Continued, compound first:

Structure (SMILES): Nc1ncnc2c1ncn2[C@@H]1O[C@H](C(=O)O)[C@@H](O)[C@H]1O [5'-CARBOXY ADENOSINE]
Kd [1]: > 15000 nM

Structure (SMILES): NCCCNc1nc2c(Br)c(Br)c(Br)c(Br)c2[nH]1
IC50 [3]: 130 nM

Structure (SMILES): CC[C@H](C)[C@H](NC(=O)[C@H](CCC(=O)O)NC(=O)[C@H](CCC(=O)O)NC(=O)[C@H](Cc1ccc(P(=O)(O)O)cc1)NC(=O)[C@H](CCC(=O)O)NC(=O)COCC(=O)NCCOCCOCCOCCOCCOCCOCCOCCOCCn1cc(CCC(=O)N2CCN(c3cc(Nc4cc(C5CC5)[nH]n4)nc(C)n3)CC2)nn1)C(N)=O
IC50 [4]: 160 nM

Structure (SMILES): C[C@H](N)C(=O)N[C@@H](CCCNC(=N)N)C(=O)N[C@@H](CCCCNC(=O)C[C@@H](NC(=O)CCCCCNC(=O)[C@H]1O[C@@H](n2cc(I)c3c(N)ncnc32)[C@H](O)[C@@H]1O)C(=O)O)C(=O)N[C@@H](CCCNC(=N)N)C(=O)N[C@@H](CCC(=O)O)C(=O)N[C@H](C(=O)N[C@@H](C)C(=O)N[C@H](CCCCN)C(N)=O)[C@H](C)O
Kd [8]: 94 nM
Selectivity Index (Homo sapiens): 4900
Kd [9]: 0.019 nM
Kd [1]: 0.019 nM

Structure (SMILES): CC(C)(C)n1nc(-c2ccc(Cl)cc2)c2c(N)ncnc21
Kd (Ephrin type-A receptor 3): 200000 nM
